Columns and labels:
[1] = test system: PC-3 prostate cancer cells; assay: Example T: sensitisation of PC-3 cells to doxorubicin, oxaliplatin, paclitaxel or vincristine, Wst1; assay type: cell-based, human; conditions: PC-3 cells, 72 hours; for viability at 0.4 µM: compound 0.4 μM alone; for Doxorubicin 3.5 μM: percent cell survival / Oxaliplatin 100 μM: percent cell survival / Paclitaxel 50 μM: percent cell survival / Vincristine 100 nM: percent cell survival: chemotherapy agent alone normalized to 100%
[2] = test system: 4T1 murine breast cancer cells; assay: Example S: in vitro anticancer screen, 4T1 cells, Wst1; assay type: cell-based, mouse; conditions: 18 hr, Wst1; for viability at 1 µM / viability at 5 µM: Mus musculus, 4T1, 18 h; for viability at 1 µM: read-out: 4T1 1 μM, percent of cancer cell survival relative to vehicle treated cells; for viability at 5 µM: read-out: 4T1 5 μM, percent of cancer cell survival relative to vehicle treated cells
Description: Anticancer activity against 4T1 murine breast cancer cells cancer cells was assessed in vitro by seeding 1×10^4 cells/well in flat bottom culture plates, then treating with selected 1 μM or 5 μM concentrations of compounds for 18 hr after plating. Then 10 μL of Wst1 dye reagent, a tetrazolium dye indicator for […], was added/well and incubated approximately 2 hr before being assayed on the Biotek EL800 Universal microplate reader (450 nm, reference 630 nm).
(§1) Numerical values in the Table 37 represent percent of cancer cell survival relative to vehicle treated cells at the indicated concentrations, with values under 100 indicating anticancer cytotoxic activity at the drugs concentrations tested.

[3] = test system: PC3 human prostate cancer cells; assay: Example S: in vitro anticancer screen, PC-3 cells, Wst1; assay type: cell-based; conditions: approximately 20 hours, Wst1
Description: Activity against PC3 human prostate cancer cells in vitro was assessed by a similar method. PC-3 prostate cancer cells were plated at 2×10^4 cells/well in 96 well flat bottom tissue culture plates, and incubated for approximately 20 hours with vehicle or test compounds at concentrations of 0.4, 0.5 or 2.5 μM as indicated for specific compounds in the right-hand column of Table 37. A 1/10th volume of Wst1 dye was added/well and incubated for two hours in the cell culture incubator. Samples were analyzed in triplicate on an EL800 Universal Microplate Reader at 450 nm, reference wavelength 630 nm.
as §1

[4] = test system: THP-1 cells; assay: Example D: LPS-triggered THP-1 cell death assay, acute/5-hour and chronic/48-hour; assay type: cell-based, Human; conditions: for Viable cell percent change, Chronic/48-hour, Mean: 10 ng/ml LPS, 0.1 μM test compound; for activity relative to AC in the LPS-triggered THP-1 cell death assay, in words: 0.1 μM, 5-hour and 48-hour time points
Description: Compounds of the invention were tested at 0.1 μM versus AC in the LPS-triggered THP-1 cell death assay. Both acute/5-hour and chronic/48-hour phases of cell death were assessed. Compounds were screened in batches with DMSO as the negative control and AC as the high activity control.

[5] = Homo sapiens, Wst1, vehicle = 100, read-out: No Chemo: percent cell survival
[6] = compound 0.4 μM + doxorubicin 3.5 μM
[7] = compound 0.4 μM + oxaliplatin 100 μM
[8] = compound 0.4 μM + paclitaxel 50 μM
[9] = compound 0.4 μM + vincristine 100 nM
[10] = Homo sapiens, PC-3, read-out: PC-3, percent of cancer cell survival relative to vehicle treated cells
[11] = Homo sapiens, compound 2.5 μM alone, Wst1, vehicle = 100, read-out: No Chemo: percent cell survival
[12] = compound 2.5 μM + doxorubicin 3.5 μM
[13] = compound 2.5 μM + oxaliplatin 100 μM
[14] = compound 2.5 μM + paclitaxel 50 μM
[15] = compound 2.5 μM + vincristine 100 nM
[16] = Homo sapiens, PC-3, 2.5 μM, read-out: PC-3, percent of cancer cell survival relative to vehicle treated cells

Row | Structure (SMILES) | viability at 0.4 µM [1, 5] [%] | Doxorubicin 3.5 μM: percent cell survival [1, 6] [%] | Oxaliplatin 100 μM: percent cell survival [1, 7] [%] | Paclitaxel 50 μM: percent cell survival [1, 8] [%] | Vincristine 100 nM: percent cell survival [1, 9] [%] | viability at 1 µM ([2]; 1 μM) [%] | viability at 5 µM ([2]; 5 μM) [%] | viability at 0.4 µM [3, 10] [%] | Viable cell percent change, Chronic/48-hour, Mean [4] [%] | viability at 2.5 µM [1, 11] [%] | Doxorubicin 3.5 μM: percent cell survival [1, 12] [%] | Oxaliplatin 100 μM: percent cell survival [1, 13] [%] | Paclitaxel 50 μM: percent cell survival [1, 14] [%] | Vincristine 100 nM: percent cell survival [1, 15] [%] | viability at 2.5 µM [3, 16] [%] | further results
1 | c1ccc(COc2cccc(CNc3ccnc4ccccc34)c2)cc1 [BU, N-[3-(Benzyloxy)benzyl]quinolin-4-amine] | 24 | 48.1 | 57.2 | 31 | 26.7 | 17.6 | 21.4 | 24 | 18.10 | – | – | – | – | – | – | activity relative to AC in the LPS-triggered THP-1 cell death assay, in words [4]: equivalent activity to AC at both the 5-hour and 48-hour time points
2 | c1cncc(CNc2ccnc3ccccc23)c1 [BY, N-(Pyridin-3-ylmethyl)quinolin-4-amine] | – | – | – | – | – | 107 | 209 | – | 39.64 | 96.6 | 98.4 | 101.1 | 99.9 | 94.1 | 96.6 | –
3 | CCCCCCOCCCCCOCCCn1cnc2cnc3ccccc3c21 [CF] | – | – | – | – | – | – | – | – | 27.26 | – | 68.8 | 83.5 | 70.3 | 75.3 | – | No Chemo: percent cell survival ([1]; compound 2.5 μM alone, Wst1, vehicle = 100): 126.4%; 4T1 1 μM, percent of cancer cell survival relative to vehicle treated cells ([2]; 1 μM): 96.7%; 4T1 5 μM, percent of cancer cell survival relative to vehicle treated cells ([2]; 5 μM): 28.6%; PC-3, percent of cancer cell survival relative to vehicle treated cells ([3]; 2.5 μM): 126.4%
4 | CCCCCCOCCCCCCCCNc1ccnc2ccccc12 [CH, N-[8-(Hexyloxy)octyl]quinolin-4-amine] | 102 | 62.8 | 101.1 | 84.6 | 67.4 | 45.2 | 27.2 | 102 | 53.55 | – | – | – | – | – | – | –
5 | CCCCCCOCCCCCCNc1ccnc2ccccc12 [CK, N-[6-(Hexyloxy)hexyl]quinolin-4-amine] | – | – | – | – | – | 62.5 | 45.3 | – | 42.23 | – | – | – | – | – | – | viability at 0.5 µM ([1]; Homo sapiens, compound 0.5 μM alone, Wst1, vehicle = 100, read-out: No Chemo: percent cell survival): 51.4%; Doxorubicin 3.5 μM: percent cell survival ([1]; compound 0.5 μM + doxorubicin 3.5 μM): 111.6%; Oxaliplatin 100 μM: percent cell survival ([1]; compound 0.5 μM + oxaliplatin 100 μM): 143%; Paclitaxel 50 μM: percent cell survival ([1]; compound 0.5 μM + paclitaxel 50 μM): 64.2%; Vincristine 100 nM: percent cell survival ([1]; compound 0.5 μM + vincristine 100 nM): 138.2%; viability at 0.5 µM ([3]; Homo sapiens, PC-3, 0.5 μM, read-out: PC-3, percent of cancer cell survival relative to vehicle treated cells): 51.4%
6 | CCCCOCCCCCCNc1ccnc2ccccc12 [CL, N-(6-Butoxyhexyl)quinolin-4-amine] | 58.1 | 22.6 | 23.2 | 50.3 | 27.7 | 25.6 | 19.5 | 58.1 | 29.43 | – | – | – | – | – | – | activity relative to AC in the LPS-triggered THP-1 cell death assay, in words [4]: equivalent activity to AC at both the 5-hour and 48-hour time points
7 | c1ccc(COCCCCCCCCNc2ccnc3ccccc23)cc1 [CO, N-[8-(Benzyloxy)octyl]quinolin-4-amine] | 77.1 | 28.4 | 29.2 | 51.6 | 32.8 | 28.4 | 55.6 | 77.1 | 43.95 | – | – | – | – | – | – | –
8 | CCCCCCOc1ccccc1C(=O)NCCNc1ccnc2ccccc12 [EB, 2-(Hexyloxy)-N-[2-(quinolin-4-ylamino)ethyl]benzamide] | – | – | – | – | – | – | – | – | 35.89 | 94.4 | 93.4 | 98.8 | 143.3 | 98.2 | 94.4 | –
9 | CCCCCCOc1ccccc1C(=O)NCCCNc1ccnc2ccccc12 [EC, 2-(Hexyloxy)-N-[3-(quinolin-4-ylamino)propyl]benzamide] | – | – | – | – | – | – | – | – | 47.40 | 94.6 | 82.8 | 100.4 | 136.8 | 91.6 | 94.6 | –
10 | CCCCCCOCCCCCCCCn1cnc(-c2ccccc2)c1 [FR, 1-[8-(Hexyloxy)octyl]-4-phenyl-1H-imidazole] | – | – | – | – | – | – | – | – | 15.96 | 101 | 93.2 | 102.5 | 102.5 | 99.1 | 101 | –
11 | CCCCCCOCCCCCCCCn1ccc2ccccc21 [FW, 1-[8-(Hexyloxy)octyl]-1H-indole] | – | – | – | – | – | – | – | – | 1.27 | – | – | – | – | – | – | viability at 5 µM ([1]; Homo sapiens, compound 5 μM alone, Wst1, vehicle = 100, read-out: No Chemo: percent cell survival): 98.1%; Doxorubicin 3.5 μM: percent cell survival ([1]; compound 5 μM + doxorubicin 3.5 μM): 102.7%; Oxaliplatin 100 μM: percent cell survival ([1]; compound 5 μM + oxaliplatin 100 μM): 109.6%; Paclitaxel 50 μM: percent cell survival ([1]; compound 5 μM + paclitaxel 50 μM): 128.5%; Vincristine 100 nM: percent cell survival ([1]; compound 5 μM + vincristine 100 nM): 104.6%; viability at 5 µM ([3]; Homo sapiens, PC-3, 5 μM, read-out: PC-3, percent of cancer cell survival relative to vehicle treated cells): 98.1%

Source: patent publication US20250034139A1, “AMINE COMPOUNDS HAVING ANTI-INFLAMMATORY, ANTIFUNGAL, ANTIPARASITIC, AND ANTICANCER ACTIVITY” (PHARMA CINQ, LLC, priority 2013, published 2025)
